Data taken from patent US9611256B2, “Alkyne-, azide- and triazole-containing flavonoids as modulators for multidrug resistance in cancers” (The Hong Kong Polytechnic University, priority 2012, dated 2017).

Legend:
BCRP [1] = molecular target: T1, BCRP (Homo sapiens, UniProt Q9UNQ0); assay: Reversal of BCRP-mediated topotecan resistance in MCF7-MX100 cells (cell proliferation assay); details: for Topotecan resistance of MCF7-MX100 Therapeutic index: (IC50 towards L929 or Raw264.7)/(EC50 for reversing drug resistance); for % of reversion of sensitivity of MCF7-MX100 towards topotecan: triazole dimers at 1.0 μM
T1 sequence (Q9UNQ0 1-655): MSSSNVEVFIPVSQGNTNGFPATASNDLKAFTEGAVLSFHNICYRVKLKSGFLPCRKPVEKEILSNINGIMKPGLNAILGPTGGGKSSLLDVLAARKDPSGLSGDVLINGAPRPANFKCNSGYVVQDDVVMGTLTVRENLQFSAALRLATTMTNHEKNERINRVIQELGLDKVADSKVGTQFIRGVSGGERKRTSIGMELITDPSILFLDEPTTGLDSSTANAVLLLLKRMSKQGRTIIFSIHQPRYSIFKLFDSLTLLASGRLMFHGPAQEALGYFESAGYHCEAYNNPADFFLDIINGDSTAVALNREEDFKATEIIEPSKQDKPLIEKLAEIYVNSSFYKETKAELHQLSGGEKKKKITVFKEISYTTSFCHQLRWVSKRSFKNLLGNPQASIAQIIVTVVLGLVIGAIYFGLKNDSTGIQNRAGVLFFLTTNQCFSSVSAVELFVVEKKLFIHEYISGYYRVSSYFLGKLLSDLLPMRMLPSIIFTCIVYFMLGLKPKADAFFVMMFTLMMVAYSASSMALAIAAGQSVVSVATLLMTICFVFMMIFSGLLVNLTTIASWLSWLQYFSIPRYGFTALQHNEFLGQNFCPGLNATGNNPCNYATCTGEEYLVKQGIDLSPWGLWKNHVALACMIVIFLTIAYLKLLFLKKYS

[2] = tested on: P-gp, MRP1 and BCRP transporters; assay: Selectivity for ABC transporters, determined from % of reversion (Tables 1 and 2); assay type: cell-based, human; details: determined from % of reversion in Table 1 (>80% strongly, 79-50% moderately selective)
Text: Generally, the triazole dimers library can be divided into mono-selective, dual-selective and multi-selective ABC transporter modulators. Table 2 summarizes the selectivity of different active triazole dimers and some monomeric azides for the ABC transporters. […] From the study, it seems that the simple monomeric azides could be a highly BCRP-selective inhibitor. […] It is possible that differently selective (mono-, dual- and multi-) inhibitors of drug transporters could be potentially useful tools for investigation of complicated drug-resistance phenotypes and eventually, for treatment of drug-resistant cancers caused by overexpression of ABC transporters.
The selectivity of active triazole compounds for various ABC transporters was determined from the Table 1. It would be considered as strongly selective if it causes >80% of reversion. It would be considered as moderately selective if it results in 79-50% of reversion. Overall, the active triazole compounds can be divided into mono-, dual- and multi-selective for P-gp, MRP1 and BCRP transporters.

BCRP [3] = molecular target: T1, BCRP; assay: cell-based
in vitro = details: mouse
MRP1 = MRP1 (Homo sapiens, UniProt P33527); assay: Reversal of MRP1-mediated DOX resistance in 2008/MRP1 cells (cell proliferation assay); details: for DOX resistance of 2008/MRP1 Therapeutic index: (IC50 towards L929 or Raw264.7)/(EC50 for reversing drug resistance); for % of reversion of sensitivity of 2008/MRP1 towards DOX: triazole dimers at 1.0 μM
Sequence of MRP1 (P33527 whole entry): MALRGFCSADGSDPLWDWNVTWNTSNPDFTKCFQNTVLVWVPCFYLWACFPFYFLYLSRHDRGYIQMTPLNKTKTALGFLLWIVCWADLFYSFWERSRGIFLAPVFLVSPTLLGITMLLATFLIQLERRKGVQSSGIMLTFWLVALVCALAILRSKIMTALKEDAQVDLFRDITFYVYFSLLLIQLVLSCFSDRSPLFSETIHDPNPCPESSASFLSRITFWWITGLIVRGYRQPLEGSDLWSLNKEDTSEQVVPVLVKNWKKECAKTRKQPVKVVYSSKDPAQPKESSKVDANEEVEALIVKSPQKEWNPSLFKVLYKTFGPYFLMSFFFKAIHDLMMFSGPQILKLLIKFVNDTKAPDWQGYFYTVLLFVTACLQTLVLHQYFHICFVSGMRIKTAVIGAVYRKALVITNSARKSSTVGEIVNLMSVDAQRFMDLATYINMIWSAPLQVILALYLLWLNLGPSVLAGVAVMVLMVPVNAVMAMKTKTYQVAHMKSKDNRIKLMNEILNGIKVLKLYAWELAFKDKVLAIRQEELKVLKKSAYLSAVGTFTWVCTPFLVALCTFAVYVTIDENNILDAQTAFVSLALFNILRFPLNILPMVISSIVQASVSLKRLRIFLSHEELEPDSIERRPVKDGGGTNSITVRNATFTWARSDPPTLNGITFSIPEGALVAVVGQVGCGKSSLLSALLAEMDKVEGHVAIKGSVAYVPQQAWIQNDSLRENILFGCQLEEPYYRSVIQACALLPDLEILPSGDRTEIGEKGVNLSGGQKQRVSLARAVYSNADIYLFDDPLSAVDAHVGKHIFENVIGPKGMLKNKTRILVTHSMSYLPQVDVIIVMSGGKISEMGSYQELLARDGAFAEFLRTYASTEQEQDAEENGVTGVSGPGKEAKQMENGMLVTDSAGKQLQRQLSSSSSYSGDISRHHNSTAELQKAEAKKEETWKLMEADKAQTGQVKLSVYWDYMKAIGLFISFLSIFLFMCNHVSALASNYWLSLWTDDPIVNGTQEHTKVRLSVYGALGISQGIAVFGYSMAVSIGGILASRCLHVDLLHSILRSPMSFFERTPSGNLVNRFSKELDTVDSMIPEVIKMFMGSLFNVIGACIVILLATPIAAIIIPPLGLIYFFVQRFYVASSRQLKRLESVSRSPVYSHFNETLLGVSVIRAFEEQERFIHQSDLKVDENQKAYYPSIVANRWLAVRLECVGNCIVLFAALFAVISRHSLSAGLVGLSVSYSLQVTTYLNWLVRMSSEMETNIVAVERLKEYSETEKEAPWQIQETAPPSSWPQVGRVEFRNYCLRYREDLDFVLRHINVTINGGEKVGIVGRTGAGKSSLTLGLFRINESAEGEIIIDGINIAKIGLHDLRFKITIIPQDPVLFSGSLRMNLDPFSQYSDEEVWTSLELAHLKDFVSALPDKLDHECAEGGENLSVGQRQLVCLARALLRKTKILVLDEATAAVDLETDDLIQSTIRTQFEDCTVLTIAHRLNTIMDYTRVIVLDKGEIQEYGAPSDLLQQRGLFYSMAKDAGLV

SMILES | Topotecan resistance of MCF7-MX100 Therapeutic index (BCRP [1]) | % of reversion of sensitivity of MCF7-MX100 towards topotecan (BCRP [1]) | Selectivity for ABC transporters (P-gp, MRP1, BCRP) [2] | EC50 (BCRP [3]) [µM] | IC50 at 5 days (in vitro) [µM] | DOX resistance of 2008/MRP1 Therapeutic index (MRP1) | % of reversion of sensitivity of 2008/MRP1 towards DOX (MRP1)
COC(=O)c1cccc(COc2c(-c3ccc(OCCOCCOCCn4cc(CCCCOc5ccc6c(=O)cc(-c7ccccc7)oc6c5)nn4)cc3)oc3ccccc3c2=O)c1 [Ac12Az9, Methyl 3-(((4-oxo-2-(4-(2-(2-(2-(4-(4-((4-oxo-2-phenyl-4H-chromen-7-yl)oxy)butyl)-1H-1,2,3-triazol-1-yl)ethoxy)ethoxy)ethoxy)phenyl)-4H-chromen-3-yl)oxy)methyl)benzoate] | >71428.6 | about 80.0% | multi-selectivity towards P-gp, MRP1 and BCRP transporters | ≤ 0.01 | > 100 |  | 
COC(=O)c1cccc(COc2c(-c3ccc(OCCOCCOCCN=[N+]=[N-])cc3)oc3ccccc3c2=O)c1 [Az9, Methyl 3-(((2-(4-(2-(2-(2-azidoethoxy)ethoxy)ethoxy)phenyl)-4-oxo-4H-chromen-3-yl)oxy)methyl)benzoate] | 2019.6 |  | mono-BCRP selectivity | ≤ 0.01 | 20.6 |  | 
O=c1[nH]c(-c2ccc(OCCCc3cn(CCOCCOc4ccc(-c5cc(=O)c6ccccc6o5)cc4)nn3)cc2)nc2ccccc12 [Ac11Az1, 2-(4-(3-(1-(2-(2-(4-(4-Oxo-4H-chromen-2-yl)phenoxy)ethoxy)ethyl)-1H-1,2,3-triazol-4-yl)propoxy)phenyl)quinazolin-4(3H)-one] | >3225.8 |  | mono-BCRP selectivity |  | > 100 |  | 
O=c1cc(-c2ccc(OCCOCCn3cc(CN(Cc4ccccc4)Cc4cn(CCOCCOc5ccc(-c6cc(=O)c7ccccc7o6)cc5)nn4)nn3)cc2)oc2ccccc12 [Ac15Az1, 2,2′-((((((4,4′-((Benzylazanediyl)bis(methylene))bis(1H-1,2,3-triazole-4,1-diyl))bis(ethane-2,1-diyl))bis(oxy))bis(ethane-2,1-diyl))bis(oxy))bis(4,1-phenylene))bis(4H-chromen-4-one)] |  |  | MRP1- and BCRP-dual selectivity | 0.111 ± 0.009 | > 100 |  | 
Cc1ccc2oc(-c3ccc(OCCCCc4cn(CCOCCOc5ccc(-c6oc7ccccc7c(=O)c6OCc6ccccc6)cc5)nn4)cc3)cc(=O)c2c1 [Ac5Az10, 3-(Benzyloxy)-2-(4-(2-(2-(4-(4-(4-(6-methyl-4-oxo-4H-chromen-2-yl)phenoxy)butyl)-1H-1,2,3-triazol-1-yl)ethoxy)ethoxy)phenyl)-4H-chromen-4-one] | >13333.3 | about 80.0% | mono-BCRP selectivity |  | > 100 |  | 
Cc1ccc2oc(-c3ccc(OCCCCc4cn(CCOCCOCCOc5ccc(-c6cc(=O)c7cc(F)ccc7o6)cc5)nn4)cc3)cc(=O)c2c1 [Ac5Az4, 6-Fluoro-2-(4-(2-(2-(2-(4-(4-(4-(6-methyl-4-oxo-4H-chromen-2-yl)phenoxy)butyl)-1H-1,2,3-triazol-1-yl)ethoxy)ethoxy)ethoxy)phenyl)-4H-chromen-4-one] |  |  |  | 0.018 | > 100 |  | 
O=c1cc(-c2ccccc2)oc2cc(OCCN(Cc3ccccc3)Cc3cn(CCOCCOCCOc4ccc(-c5oc6ccccc6c(=O)c5OCc5ccccc5)cc4)nn3)ccc12 [Ac16Az5, 7-(2-(Benzyl((1-(2-(2-(2-(4-(3-(benzyloxy)-4-oxo-4H-chromen-2-yl)phenoxy)ethoxy)ethoxy)ethyl)-1H-1,2,3-triazol-4-yl)methyl)amino)ethoxy)-2-phenyl-4H-chromen-4-one] |  |  | mono-MRP1 selectivity |  | > 100 | >331.5 | about 77.8%
[N-]=[N+]=NCCOCCOc1ccc(-c2oc3ccccc3c(=O)c2OCc2ccccc2)cc1 [Az10, 2-(4-(2-(2-Azidoethoxy)ethoxy)phenyl)-3-(benzyloxy)-4H-chromen-4-one] |  |  | mono-BCRP selectivity | 0.032 | 51 |  | 
Cc1ccc2oc(-c3ccc(OCCOCCOCCn4cc(CN(CCOc5ccc6c(=O)cc(-c7ccccc7)oc6c5)Cc5ccccc5)nn4)cc3)cc(=O)c2c1 [Ac16Az3, 7-(2-(Benzyl((1-(2-(2-(2-(4-(6-methyl-4-oxo-4H-chromen-2-yl)phenoxy)ethoxy)ethoxy)ethyl)-1H-1,2,3-triazol-4-yl)methyl)amino)ethoxy)-2-phenyl-4H-chromen-4-one] |  |  | mono-MRP1 selectivity |  | > 100 | >726.2 | 
O=C(/C=C/c1ccc(OCCCCc2cn(CCOCCOc3ccc(-c4cc(=O)c5ccccc5o4)cc3)nn2)cc1)c1ccc(F)cc1O [Ac10Az1, (E)-2-(4-(2-(2-(4-(4-(4-(3-(4-Fluoro-2-hydroxyphenyl)-3-oxoprop-1-en-1-yl)phenoxy)butyl)-1H-1,2,3-triazol-1-yl)ethoxy)ethoxy)phenyl)-4H-chromen-4-one] |  |  | MRP1- and BCRP-dual selectivity |  |  |  | ~54.8%
O=c1cc(-c2ccccc2)oc2cc(OCCOCCOCCn3cc(CN(CCOc4ccc5c(=O)cc(-c6ccccc6)oc5c4)Cc4ccccc4)nn3)ccc12 [Ac16Az12, 7-(2-(Benzyl((1-(2-(2-(2-((4-oxo-2-phenyl-4H-chromen-7-yl)oxy)ethoxy)ethoxy)ethyl)-1H-1,2,3-triazol-4-yl)methyl)amino)ethoxy)-2-phenyl-4H-chromen-4-one] |  |  | mono-MRP1 selectivity |  | > 100 | >480.8 | 
O=c1c(OCc2ccccc2)c(-c2ccc(OCCOCCOCCn3cc(CN(Cc4ccccc4)Cc4cn(CCOCCOCCOc5ccc(-c6oc7ccccc7c(=O)c6OCc6ccccc6)cc5)nn4)nn3)cc2)oc2ccccc12 [Ac15Az5, 2,2′-((((((((4,4′-((Benzylazanediyl)bis(methylene))bis(1H-1,2,3-triazole-4,1-diyl))bis(ethane-2,1-diyl))bis(oxy))bis(ethane-2,1-diyl))bis(oxy))bis(ethane-2,1-diyl))bis(oxy))bis(4,1-phenylene))bis(3-(benzyloxy)-4H-chromen-4-one)] |  |  | mono-BCRP selectivity | 0.048 | > 100 |  | 
O=c1cc(-c2ccc(OCCOCCn3cc(CN(CCOc4ccc5c(=O)cc(-c6ccccc6)oc5c4)Cc4ccccc4)nn3)cc2)oc2ccccc12 [Ac16Az1, 7-(2-(Benzyl((1-(2-(2-(4-(4-oxo-4H-chromen-2-yl)phenoxy)ethoxy)ethyl)-1H-1,2,3-triazol-4-yl)methyl)amino)ethoxy)-2-phenyl-4H-chromen-4-one] |  | 80.0% |  |  | > 100 |  | 
Cc1ccc2oc(-c3ccc(OCCCCc4cn(CCOCCOCCOc5ccc(-c6oc7ccccc7c(=O)c6OCc6ccccc6)cc5)nn4)cc3)cc(=O)c2c1 [Ac5Az5, 3-(Benzyloxy)-2-(4-(2-(2-(2-(4-(4-(4-(6-methyl-4-oxo-4H-chromen-2-yl)phenoxy)butyl)-1H-1,2,3-triazol-1-yl)ethoxy)ethoxy)ethoxy)phenyl)-4H-chromen-4-one] |  |  | Pgp- and BCRP-dual selectivity | 0.033 | > 100 |  | 
O=c1cc(-c2ccc(OCCOCCn3cc(CCCOc4ccc(-c5cc(=O)c6ccc(F)cc6o5)cc4)nn3)cc2)oc2ccccc12 [Ac3Az1, 7-Fluoro-2-(4-(3-(1-(2-(2-(4-(4-oxo-4H-chromen-2-yl)phenoxy)ethoxy)ethyl)-1H-1,2,3-triazol-4-yl)propoxy)phenyl)-4H-chromen-4-one] |  | about 53.3% |  |  | > 100 |  | 
COC(=O)c1cccc(COc2c(-c3ccc(OCCOCCN=[N+]=[N-])cc3)oc3ccccc3c2=O)c1 [Az8, Methyl 3-(((2-(4-(2-(2-azidoethoxy)ethoxy)phenyl)-4-oxo-4H-chromen-3-yl)oxy)methyl)benzoate] | 562.5 |  | mono-BCRP selectivity |  | 67.5 |  | 
